# Laboratory results: patent US20220273926A1, “DRUG DELIVERY USING MICRONEEDLE ARRAYS” (BOARD OF REGENTS OF THE UNIVERSITY OF NEBRASKA, priority 2019, published 2022)
# Where two headings read alike, the source gives them in different places.
# Experiments:
# [1] = topical delivery; 100 μL of 5 mg/mL; 3% agarose; 30 min
# Text: Agarose and other agar-based hydrogels have been widely used as skin models in previous studies^37,38. […] The intensity is also plotted quantitatively against the depth of penetration (FIG. 15C).
# [2] = Release profile from hydrogel-filled MNAs; assay type: physicochemical; conditions: three concentrations, 3 mm and 2 mm MNAs, 72 hrs in PBS
# Method: MNAs were filled with this BSA-containing alginate solution and Calcium Chloride (CaCl2) used for crosslinking following this protocol: first placing MNAs in 3% (w/v) agarose gel containing 2% (v/v) CaCl2 for few minutes and then pipetting additional 2% (v/v) CaCl2 over the tops to ensure complete crosslinking.
# To perform a 3-day long release study, each needle array was placed in 0.5 mL of PBS. Samples were taken from solution at each time point over the course of 72 hrs and were stored in micro vials at room temperature over the duration of the release. For the final evaluation of protein release, 150 μL of each sample added to 96 well plates mixed with 150 μL of working reagent. Working reagent solution was made from a mixture of reagent A, B and C of BCA protein kit with the ratio of 24:24:1. Once reagents and samples were mixed, plates were incubated at 37° C. for an hour, and a plate reader (BioTech) used to read the absorption. Absorption values from the plate reader converted to concentrations using a calibration curve.
# After filling the MNAs with the solution, PEGDA was photocrosslinked for approximately 30 seconds using a handheld UV light. A similar experimental protocol followed to study protein release from PEGDA over the course of 72 hours.
# [3] = system: HUVECs; conditions: VEGF equivalent to 50 ng/mL through MNAs
# Method: To develop a method for mimicking the crust and necrotic tissue covering chronic wounds, 12-well cell culture inserts were used and covered with […] of 3% (w/v) agarose solution […]. […] Similar techniques were applied for scratch assay with seeding HUVECs in the bottom of chamber covered by 2 mL basal media.
# To assess the effectiveness of the released factors, a standard scratch assay was conducted. Wells of a 12-well plate were coated by Geltrex. After aspirating the Geltrex from the wells, 30,000 cells per well were seeded and cultured until a confluent monolayer formed in each well. The cells were cultured in basal media supplemented with 2% FBS for 6 hours. prior to the experiments. On the day of experiments, an approximately 200 μm wide scratch was formed using a 200 μL micropipette tip. […] Fixed points of each well (two points per well) were imaged using a Nikon Ti inverted microscope after 0, 2, and 4 hours after each treatment application. A total of 4 samples per condition was tested.
# [4] = system: full thickness skin wounds of diabetic (Lepr^db) mice
# Method: To further investigate the potential benefits of MNAs in treatment of diabetic and chronic wounds, an animal study was conducted on diabetic mice with cutaneous wounds. Homozygous mice for the diabetes spontaneous mutation (Lepr^db) become identifiably obese around 3 to 4 weeks of age. On day 10 to 14 elevations of plasma insulin begin and at four to eight weeks the blood sugar level elevates. With a delayed wound healing and an increased metabolic efficiency this mouse strain serves as a suitable model for chronic wound research.
# On day one, all the mice received a square shaped 1 cm×1 cm full thickness skin cut on their dorsum. The animals were kept untreated for 5 days to allow the formation of wound crust. On days 5 and 7 post-surgery, animals received the planned treatment. T weight of each animal was recorded periodically, and wound areas were assessed every two days and photographed to monitor investigate wound closure (FIG. 5A).
# Animal Studies: All animal procedures were reviewed and approved by the Institutional Animal Care and Use Committee (IACUC) of the University of Nebraska, Lincoln. Five weeks old B6.BKS(D)-Lepr^db/J mice were purchased from the Jackson Laboratory (Bar Harbor, Me.) weighted between 34-43 grams and accommodated in University of Nebraska, Life Science, animal facility for one week before the wound injury procedure. The animals were on special food diet during the entire research period.
# In the day 1, all animals were anesthetized by 5% of isoflurane using anesthesia system, (VetFlo, Kent Scientific, Torrington, Conn.) via a nose cone. The hair on the dorsal region of animals was shaved using an electric razor. The skin was sterilized, and a full thickness skin cut of 1 cm×1 cm was created. The wounds were covered with a regular bandage. All mice placed back in separate cages individually after recovering from anesthesia. Animals were monitored for wound condition, vitals and wellbeing, and weight gain/loss trends daily.
# To simulate the real wound conditions covered by crust and necrotic tissues, treatment start points were on day 5 by which a complete crust was formed on the wounds. […] In the topical delivery group, 100 μl of the solution was poured topically using a pipette on the top of the wound and the animals were let to sit for about 10 minutes, the wound was then covered by a fresh dressing. In MNAs delivery group, 100 μl of the solution was delivered using the MNAs and after 10 min, the microneedles were removed and the wound was covered by a fresh dressing. Animals of negative control received no treatment. […] Wounds were inspected every 2 days and the bandage was changed and a picture of the wound was taken using a digital camera.
# On day 19, all animals were sacrificed using 20% CO2 volume displacement (flow rate cage volume/per minute) poisoning overdose and wound tissue was harvested and fixed in using 4% paraformaldehyde (PFA).
# Histology: Frozen sections of haired skin were stored in a −80° C. ultralow freezer prior to sectioning on a cryotome. The sections of skin were cut 10 μm thick using a Thermo Scientific CryoStar NX50, routinely stained with hematoxylin and eosin on a Leica ST5020 H&E stainer, and coverslipped with a Leica CV5030 coverslipper. A veterinary anatomic pathologist who is board certified by the American College of Veterinary Pathologists performed all histological evaluations. Immunohistochemistry was done manually using Anti-CD31, rabbit host species (ab28364, Abcam, MA, USA).
# [5] = system: full-thickness skin wounds of diabetic (Lepr^db) mice; conditions: for average healing rate: 100 μL of 500 ng/mL on days 5 and 7; for histological features at the central region of the wounds (H&E): day 19
# Text: On the day of surgery, mice received a full thickness (1×1 cm^2) skin wound on their dorsum. Mice with the full thickness (1×1 cm^2) wound on their dorsum were kept untreated for 5 days to allow eschar formation. Animals received treatment via three different delivery methods on days 5 and 7 post-surgery. […] Similar to in vitro experiments, to minimize the potential injury upon the delivery of therapeutics intradermally using LJI, a layer of agarose was placed between the wound and the nozzle.
# Small Animal studies: Murine animal procedures were approved by the Institutional Animal Care and Use Committee (IACUC) of the University of Nebraska, Lincoln. Six to seven weeks old B6.BKS(D)-Lepr^db/J mice were obtained from the Jackson Laboratory (Bar Harbor, Me.). Since this mouse strain had congenic obesity, the animals were put on a special food diet. […] On day 0 of the study, 5% isoflurane was provided via a nose cone for anesthetization of animals and 3% isoflurane was used for maintaining sedation. The hair on the dorsal area was shaved, the skin was sterilized, and a full-thickness skin cut of 1 cm×1 cm was created. Buprenorphine SR was administered for pain relief at the time of surgery.
# Animals received treatments on day 5 and day 7 post-surgery. […] To minimize the potential damage of solutions delivered by LJI to mice, an approximately 9 mm thick layer of 5% (w/v) of agarose was placed between the LJI nozzle and animal skin (FIG. 21).
# Animals were inspected daily for wound closure, weight change and vitals. All animals were sacrificed on day 19 post-surgery using CO2 asphyxiation using a 30% oxygen displacement rate. The wound tissue was harvested and fixed in 10% neutral buffered formalin for further histological study.
# Histological analysis: Sections of harvested skin were fixed by immersion in 10% neutral buffered formalin and routinely processed on a Tissue-Tek VIP 5 Tissue Processor. After processing, the tissues were embedded in paraffin blocks and were sectioned at 4 μm thick on a HM 355S Thermo Scientific microtome. Slides were deparaffinized and stained with H&E using a Leica ST5020 H&E stainer. Histological evaluation was conducted by a board certified veterinary anatomic blinded to the experiment.
# Immunohistochemistry staining: In the murine study, formalin-fixed and paraffin-embedded biopsies were cut into 7 μm thick samples. Slides were deparaffinized, hydrated and washed using xylene and ethanol solutions. Subsequently, a heat mediated antigen retrieval step was performed at 95° C. for […]. The sections were blocked using 2.5% normal horse serum for 30 min at room temperature, and incubated with primary antibody (anti-CD31) at 4° C. overnight. Tissue sections were then treated with 3% hydrogen peroxide for 10 minutes at room temperature to block the peroxidase activity. Secondary antibody was then applied for 30 minutes at room temperature. To form a colored precipitate, DAB solution was incubated on the slides for 3-5 minutes. Finally, counterstaining was performed using hematoxylin for 30 seconds, and sections were dehydrated, washed, covered with mounting solution, and cover slipped.
# [6] = system: full-thickness wounds on the dorsum of Yorkshire pigs; conditions: day 14
# Method: To serve as controls, a group of wounds was treated with PBS for evaluating the potential effects of MNA administration, and a group was left untreated.
# Large animal studies: The procedures for porcine animal studies were performed at Toxikon Corporation (Bedford, Mass.). The study protocol was approved by Toxikon's Institutional Animal Care and Use Committee, and conformed to federal animal laws and regulations. Three Yorkshire pigs (Animal Biotech Industries, Danboro, Pa.), 70-80 kg each, were anesthetized by intramuscular administration of 3.3 mg/kg ketamine, 2.2 mg/kg xylazine, 1.1 mg/kg acepromazine, and 0.02 mg/kg atropine. 0-5% isoflurane and oxygen were provided to maintain general anesthesia. Pain management was achieved by administration of a transdermal patch releasing 2-3 mkg/kg/h fentanyl per hour for 72 hours (Duragesic, Janssen). In addition, buprenorphine 0.01-0.03 mg/kg was delivered intramuscularly at the end of the surgery.
# Circular full-thickness wounds (d=2.5 cm) were created on the dorsum of each pig. After marking the wounds in parallel paraspinal stripes, the outlines were tattooed with red ink using an electric tattoo marker (Spaulding & Rogers Mfg., Inc., Voorheesville, N.Y.). Full-thickness wounds down to fascia were excised. […]
# For macroscopic wound evaluation, wound contraction was measured of the tattooed margins from macroscopic wound photos using Image J software (NIH, Bethesda, Md.). Open wound area (S1) and the area inside tattooed margin (S2) were measured and compared with original wound size on day 0 (S0=5 cm^2). The wound contraction and non-contracted wound closure contributions were calculated as 100×(S2−S0)/S0 and 100×(S2−S1)/S0, respectively.
# In the swine experiment, the wounds were excised using a scalpel and fixed in formalin for immunohistochemical analysis. […] The wound sections were immunostained for von Willebrand Factor (vWF), smooth muscle actin (SMA), and CD3 based on manufacturers' protocols and the amount of positive staining was quantified in a blinded-manner using a light microscope.
compound,measurement,setting,value
CCN(CC)c1ccc2c(-c3ccccc3C(=O)O)c3ccc(=[N+](CC)CC)cc-3oc2c1.[Cl-] [rhodamine B],depth after which dye intensity promptly decreased,[1],~1 mm
same,release profile from alginate-filled MNAs,[2],"curved burst release over the first 6 hours, with slower, more linear release over the next 3 days"
vascular endothelial growth factor [VEGF],migration rate,[3],comparable to the positive control group
same,scratch closure,[3]; in 4 hours,100%
same,wound closure / healing rate,"[4]; MNA delivery, 100 μL of 500 ng/mL on days 5 and 7, day 19",95%
same,wound closure compared with other groups,"[4]; MNA delivery, day 17 and 19",significantly faster than both topical delivery and negative control groups
same,average wound size,"[4]; MNA delivery, day 19",0.04 cm^2
same,scarring,"[4]; MNA delivery, end of the experiments",no evidence of scaring was observed
same,hair growth in the wound area,[4]; topical delivery,no hair growth was observed
same,wound closure rate compared to negative control,[4]; topical delivery,No significant difference was observed in the wound closure rate
same,average healing rate,"[5]; LJI delivery, end of the study",81%
same,average healing rate,"[5]; MNA delivery, end of the study",96%
same,average wound size,"[5]; MNA delivery, end of the study",0.04 cm^2
same,histological features at the central region of the wounds (H&E),[5]; TOP-administrated,contained a bed of granulation tissue with a partially healed center
same,histological features at the central region of the wounds (H&E),"[5]; intradermal delivery (MNA, LJI)",more advanced wound healing characteristics
same,"vascularization, IHC staining against CD31","[5]; intradermal delivery vs topical and controls, 19 days post-injury",Superior vascularization
same,overall healing,"[5]; intradermal delivery vs topical delivery and controls, 19 days after surgery",improved healing
same,wound closure,"[5]; topical delivery, end of the 20-day study",about 66%
same,wound closure rate compared to negative control groups,"[5]; topical delivery, vs no treatment or PBS via MNA and LJI",No significant difference was observed in the wound closure rate
same,expression of SMA+ myofibroblasts (IHC),[6]; VEGF delivery,decreased the expression of SMA+ myofibroblasts
same,vascularization (vWF expression),[6]; intradermal (MNA) delivery,a significant enhancement in vascularization
same,vascularization (vWF expression),[6]; topical delivery,clearly less effective in inducing vascularization
